The results in this text go back to patent publication US10065990B2, “Cyclic peptide compound, and preparation method, pharmaceutical composition and use thereof” (HANGZHOU GUANYU BIO-MEDICAL CO., LTD, priority 2013, dated 2018).

In experiment [1] the target is HDAC2 (Homo sapiens, UniProt Q92769). As to the kind of experiment: HDAC biochemical activity measurement (fluorescent substrate deacetylation). Particulars: 37° C. 30 minutes.
For experiment [2], the system named is A549 (human lung cancer cells). In words: MTT cancer cell growth inhibition. In kind it is cell-based. The following applies: Homo sapiens, A549, 72 h, MTT. Put shortly: (§1)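 72 h exposure, final drug 10^−5–10^−10 M, triplicate wells; 1500 cells/well plated the day before; medium DMEM or 1640 + 10% FBS; 37° C./5% CO2. MTT (5 mg/ml stock) 4 h, DMSO solubilisation, A570 → % viability → GI50.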

The test system of experiment [3] is Bel-7402 (human hepatoma cells). In words: MTT cancer cell growth inhibition. Particulars: Homo sapiens, Bel-7402, 72 h, MTT, 72 hours incubation, Bel-7402 cells; read-out: GI50 Bel-7402. The format is cell-based. The essentials: as §1
The subject of experiment [4] is DU145 (human prostate cancer cells). In words: MTT cancer cell growth inhibition. The format is cell-based. Particulars: Homo sapiens, DU-145, 72 h, MTT. Put shortly:
as §1

Experiment [5] has as its system H1975 (non-small cell lung adenocarcinoma). In words: MTT cancer cell growth inhibition. In kind it is cell-based. The following applies: Homo sapiens, NCI-H1975, 72 h, MTT, 72 hours incubation, H1975 cells; read-out: GI50 H1975. The essentials: as §1
In experiment [6] the test system is HCC827 (human non-small cell lung cancer cells). In words: MTT cancer cell growth inhibition. In kind it is cell-based. Particulars: Homo sapiens, HCC827, 72 h, MTT, 72 hours incubation, HCC827 cells; read-out: GI50 HCC827. The essentials:
as §1

In experiment [7] the test system is K562 (human leukemia cells). In words: MTT cancer cell growth inhibition. In kind it is cell-based. The following applies: Homo sapiens, K562, 72 h, MTT, 72 hours incubation, K562 cells; read-out: GI50 K562. Put shortly: as §1
The test system of experiment [8] is MCF-7 (human breast cancer cells). As to the kind of experiment: MTT cancer cell growth inhibition. In kind it is cell-based. The following applies: Homo sapiens, MCF7, 72 h. Put shortly: as §1
The test system of experiment [9] is MOLT-4 (human acute lymphoblastic leukemia cells). In words: MTT cancer cell growth inhibition. The format is cell-based. Particulars: Homo sapiens, MOLT-4, 72 h, MTT. The essentials:
as §1

Experiment [10] concerns PANC-1 (Pac-1, human pancreatic cancer cells). In words: MTT cancer cell growth inhibition. The following applies: Homo sapiens, PANC-1, 72 h, MTT. The format is cell-based. Put shortly: as §1
Experiment [11] has as its system U937 (human leukemia cells). As to the kind of experiment: MTT cancer cell growth inhibition. The format is cell-based. The following applies: Homo sapiens, U-937, 72 h, MTT. Put shortly: as §1
The test system of experiment [12] is lncap (prostate cancer cells). As to the kind of experiment: MTT cancer cell growth inhibition. The format is cell-based. Particulars: Homo sapiens, LNCaP, 72 h, MTT. Put shortly:
as §1

Experiment [13] has as its target T1, HDAC11 (Homo sapiens, UniProt Q96DB2).
T1 sequence (Q96DB2 1-347): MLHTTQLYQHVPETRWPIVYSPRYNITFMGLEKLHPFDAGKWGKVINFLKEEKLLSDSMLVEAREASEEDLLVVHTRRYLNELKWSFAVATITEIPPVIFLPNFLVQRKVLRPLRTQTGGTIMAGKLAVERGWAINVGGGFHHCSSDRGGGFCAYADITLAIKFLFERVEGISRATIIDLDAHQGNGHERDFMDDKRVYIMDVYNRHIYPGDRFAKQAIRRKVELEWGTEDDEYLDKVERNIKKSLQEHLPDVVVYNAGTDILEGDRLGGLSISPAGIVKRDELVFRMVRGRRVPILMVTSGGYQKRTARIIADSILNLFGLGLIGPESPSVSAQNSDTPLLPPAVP
In words: HDAC biochemical activity measurement (fluorescent substrate deacetylation).

The mark [14] stands for this setting: 72 hours incubation, read-out: GI50 A54.
The mark [15] stands for this setting: 72 hours incubation, read-out: GI50 Du1.
The mark [16] stands for this setting: 72 hours incubation, read-out: GI50 MCF.
The mark [17] stands for this setting: 72 hours incubation, read-out: GI50 Mol.
Setting [18] is: 72 hours incubation, read-out: GI50 PAN.
Where [19] appears, read: 72 hours incubation, read-out: GI50 U93.
[20] abbreviates: 72 hours incubation, read-out: GI50 lnca.
Where [21] appears, read: A549 cells, 72 hours incubation, read-out: GI50 A54.
Where [22] appears, read: 72 hours, present invention, read-out: GI50 A549, a.
Where [23] appears, read: DU145 cells, 72 hours incubation, read-out: GI50 Du1.
Where [24] appears, read: 72 hours, present invention, read-out: GI50 Du145, a.
The mark [25] stands for this setting: 72 hours, present invention, read-out: GI50 MCF7, a.
Where [26] appears, read: MCF-7 cells, 72 hours incubation, read-out: GI50 MCF.
[27] abbreviates: MOLT-4 cells, 72 hours incubation, read-out: GI50 Mol.
Where [28] appears, read: 72 hours, present invention, read-out: GI50 Molt-4, a.
The mark [29] stands for this setting: 72 hours, present invention, read-out: GI50 PANC-1, a.
Where [30] appears, read: PANC-1 cells, 72 hours incubation, read-out: GI50 PAN.
Where [31] appears, read: 72 hours, present invention, read-out: GI50 U937, a.
[32] abbreviates: U937 cells, 72 hours incubation, read-out: GI50 U93.
Setting [33] is: 72 hours, present invention, read-out: GI50 lncap, a.
The mark [34] stands for this setting: lncap cells, 72 hours incubation, read-out: GI50 lnca.
Setting [35] is: read-out: IC50 HDAC11, HDAC11, 37° C. 30 minutes.

Where two headings read alike, the source gives them in different places.

Chain of HDAC2 (Q92769 whole entry, species assumed): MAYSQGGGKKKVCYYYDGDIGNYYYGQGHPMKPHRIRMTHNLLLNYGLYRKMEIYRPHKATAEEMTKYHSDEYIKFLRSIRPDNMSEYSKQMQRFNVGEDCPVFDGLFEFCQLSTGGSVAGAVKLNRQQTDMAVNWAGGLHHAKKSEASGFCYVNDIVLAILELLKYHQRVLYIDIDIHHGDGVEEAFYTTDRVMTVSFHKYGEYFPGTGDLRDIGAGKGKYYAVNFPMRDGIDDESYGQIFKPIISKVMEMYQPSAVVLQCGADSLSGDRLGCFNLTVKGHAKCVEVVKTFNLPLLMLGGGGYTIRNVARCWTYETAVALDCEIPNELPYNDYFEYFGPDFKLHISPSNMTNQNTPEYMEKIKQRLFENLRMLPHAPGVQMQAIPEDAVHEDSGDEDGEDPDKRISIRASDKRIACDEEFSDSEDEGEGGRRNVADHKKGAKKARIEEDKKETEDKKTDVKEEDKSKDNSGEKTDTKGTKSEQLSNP

As for `C/C=C1\NC(=O)c2nc(ccc2F)CNC(=O)C[C@@H](/C=C/CCSC(=O)CC)OC(=O)[C@H](C(C)C)NC1=O` [Example 45], the IC50 (as a rule, the concentration needed to halve the response being measured) in experiment [1] was found to be 32 nM; in experiment [13], 92 nM. Besides, the GI50 (commonly the concentration giving 50% growth inhibition) in experiment [2] (setting [14]) was 40 nM; in experiment [3], 61 nM; in experiment [4] (setting [15]) it was 30 nM; in [5], 34 nM; in [6], 61 nM; in experiment [7], 33 nM. In addition, the GI50 in [8] (setting [16]) came out at 50 nM; in [9] (setting [17]), 30 nM; in experiment [10] (setting [18]), 60 nM; in experiment [11] (setting [19]), 30 nM; in [12] (setting [20]), 30 nM.

On to `C/C=C1\NC(=O)c2ccc(F)c(n2)CNC(=O)C[C@@H](/C=C/CCSC(=O)CC)OC(=O)[C@H](C(C)C)NC1=O` [Example 47], for which the IC50 in experiment [1] worked out at 26 nM; in experiment [13], 83 nM. Moreover, the GI50 in experiment [2] (setting [14]) was determined as 40 nM; in [3], 43 nM; in experiment [4] (setting [15]), 30 nM; in experiment [5], 29 nM; in [6] it was 43 nM; in [7] it was 39 nM. The GI50 in [8] (setting [16]) is 50 nM; in experiment [9] (setting [17]), 20 nM; in experiment [10] (setting [18]), 40 nM; in [11] (setting [19]) it was 20 nM; in [12] (setting [20]), 20 nM.

Turning to `C/C=C1\NC(=O)c2nc(ccc2C)CNC(=O)C[C@@H](/C=C/CCSC(=O)CCCCCCC)OC(=O)[C@H](C(C)C)NC1=O` [Compound 243], the figures for the IC50 in experiment [1] and in [13] (setting [35]) were 56 nM and 187 nM, respectively. Besides, the GI50 in experiment [2] (setting [21]) is 940 nM; in experiment [2] (setting [22]) it was 940 nM; in experiment [3], 35 nM; in experiment [4] (setting [23]), 130 nM; in [4] (setting [24]), 130 nM; in experiment [5], 43 nM. Moreover, the GI50 in experiment [6] is 37 nM; in experiment [7], 32 nM; in [8] (setting [25]), 120 nM; in experiment [8] (setting [26]), 120 nM; in experiment [9] (setting [27]), 490 nM; in experiment [9] (setting [28]), 490 nM. Also, the GI50 was 520 nM in [10] (setting [29]); 520 nM in experiment [10] (setting [30]); 870 nM in experiment [11] (setting [31]); 870 nM in [11] (setting [32]); 470 nM in experiment [12] (setting [33]); 470 nM in [12] (setting [34]).

Take `C/C=C1\NC(=O)c2nc(ccc2SC)CNC(=O)C[C@@H](/C=C/CCSC(=O)CCCCCCC)OC(=O)[C@H](C(C)C)NC1=O` [Compound 147]: the results for the half-inhibitory concentration (IC50) in experiment [1] and in [13] were 41 nM and 86 nM, respectively. In addition, the GI50 in [2] (setting [21]) worked out at 30 nM; in experiment [3] it was 28 nM; in experiment [4] (setting [23]), 40 nM; in experiment [5], 26 nM; in experiment [6], 28 nM; in experiment [7], 37 nM. Besides, the GI50 is 40 nM in experiment [8] (setting [26]); 80 nM in [9] (setting [27]); 50 nM in [10] (setting [30]); 30 nM in experiment [11] (setting [32]); 50 nM in [12] (setting [34]).

Regarding `C/C=C1\NC(=O)c2cccc(n2)CNC(=O)C[C@@H](/C=C/CCSC(=O)CCCCCCC)OC(=O)[C@H](C(C)(C)C)NC1=O` [Compound 237], the IC50 in experiment [1] stood at 32 nM; in [13] (setting [35]), 77 nM. Moreover, the GI50 in experiment [2] (setting [21]) was 420 nM; in experiment [2] (setting [22]), 420 nM; in experiment [3], 42 nM; in [4] (setting [23]) it was 40 nM; in [4] (setting [24]) it was 40 nM; in [5], 83 nM. For the same compound, the GI50 in experiment [6] is 25 nM; in [7], 69 nM; in experiment [8] (setting [25]) it was 350 nM; in [8] (setting [26]), 350 nM; in experiment [9] (setting [27]) it was 970 nM; in experiment [9] (setting [28]), 970 nM. Also, the GI50 turned out to be 930 nM in experiment [10] (setting [29]); 930 nM in experiment [10] (setting [30]); 110 nM in experiment [11] (setting [31]); 110 nM in [11] (setting [32]); 940 nM in [12] (setting [33]); 940 nM in experiment [12] (setting [34]).
